Test results from US20180085416A1, “TRADITIONAL CHINESE MEDICINE COMPOSITION AND PREPARATION METHOD AND USE THEREOF” (INFINITUS (CHINA) COMPANY LTD., priority 2016, published 2018).

What was measured:
mouse tampon granuloma = assay: Chronic inflammatory model: cotton pellet (tampon) induced granuloma; format: in vivo, Balb/c mice; settings: mice, 10 mg/kg
Procedure: 80 Balb/c male mice (about 8 weeks old) were randomized into 8 groups based on body weight (10 mice/group). The groups were respectively model group and positive control group—dexamethasone group, high, medium and low dose groups of the traditional Chinese medicine composition produced by Comparative Example 1 (0.35, 1.05, 2.10 ml/kg), high, medium and low dose groups of the medicament produced by Example 1 (0.35, 1.05, 2.10 ml/kg). Animals from Comparative Example group and Examples of the present application groups were intragastrically administrated 30 days before modeling, once a day. Model control group was administered equal volume of deionized water. The administration volume was always 2.10 ml/kg. Dexamethasone group was administered at 10 mg/kg, and was intragastrically administrated 10 days before modeling. After the last administration, the mice were anesthetized by intraperitoneal injection of 3% pentobarbital sodium at a dose of 60 mg/kg body weight. After anesthesia, the animals were fixed in supine position, and the bilateral inguinal clothing hairs of the rats were removed with a hair removal device. After iodophor disinfection, the rats were subjected to skin incision for about 2 cm at both sides of the groin, and a sterilized tampon was implanted at both sides of the groin of the rats. […]

[1] = test system: capsaicin induced rats' pharyngitis; assay: Effect on acute pharyngitis (capsaicin induced pharyngitis), EB dye exudation at pharyngeal mucosa; format: in vivo, SD rats; settings: 1 mg/kg intragastric, 10 days before modeling
Procedure: Experimental method: 90 male SD rats (˜8 weeks age) were randomized into 9 groups (10 rats/group). […] Animals from Comparative Example groups and Example of the present application groups were intragastrically administrated 30 days before modeling, once a day. Blank control group and model control group were administered equal volume of distilled water. […] The positive control group was administered at 1 mg/kg, and was intragastrically administrated 10 days before modeling. 24 hours after the last administration, the rats were anesthetized, injected with EB dye through the side tail vein. Ten minutes later, capsaicin was smeared to velopharyngeal tissue mucosa of rats, wherein each point was smeared for 3 times/5 seconds, with a total of 60 minutes. Blank control group was not subjected to stimulation.
After the end of the experiment, all rats were sacrificed by cervical dislocation, and were subjected to quantitative determination of EB dye exudation at pharyngeal mucosa respectively, in order to evaluate the improvement situation of pharyngeal mucosa inflammation of rats induced by capsaicin.

[2] = test system: carrageenan induced toe swelling of mice; assay: Acute inflammatory model: carrageenan-induced paw edema; format: in vivo, Balb/c mice; settings: 10 mg/kg, blank control = 100
Procedure: 90 Balb/c male mice (about 8 weeks old) were randomized into 9 groups based on body weight (10 mice/group). The groups were respectively blank control group, model group and positive control group—dexamethasone group, high, medium and low dose groups of the traditional Chinese medicine composition produced by Comparative Example 1 (0.35, 1.05, 2.10 ml/kg), high, medium and low dose groups of the medicament produced by Example 1 (0.35, 1.05, 2.10 ml/kg). Animals from Comparative Example group and Examples of the present application groups were intragastrically administrated 30 days before modeling, once a day. Blank control group and model control group were administered equal volume of distilled water. The administration volume was always 2.10 ml/kg. Dexamethasone group was administered at 10 mg/kg, and was intragastrically administrated 10 days before modeling. The model control group was intragastrically administrated equal volume of distilled water for consecutive 30 days, once a day. On day 30, 1 hour after the test samples were administered, a line was drawn using a marker pen along the external malleolus of right rear paw of rats as the marker. A toe volume measuring instrument was used to measure the volumes of right rear toes of each groups of rats (as the toe volume at 0 hour), and then the right rear toes of rats were subcutaneously injected 1% carrageenan (0.05 mL/rat). The thickness of rat paws at 1, 2, 4 hours were measured respectively. Each animal was measured for 3 times at the same site, and the results were averaged. The swelling value is defined as the difference between the toe volumes measured at different times and the toe volumes before the action of proinflammatory agent, which is used to calculate the toe volume swelling rates at each time period.
[Paw edema (mm)]=[footpad thickness of carrageenan (mm)−footpad thickness of PBS (mm)].

[3] = test system: excreted amount of phenol red in trachea of mice; assay: Expectorant effect in mice (phenol red excretion in trachea); format: in vivo, Balb/c mice
Procedure: 80 Balb/c male mice (about 8 weeks old) were randomized into 8 groups based on body weight (10 mice/group). The groups were respectively blank control group and positive control group—ammonium chloride group (1 g/kg), high, medium and low dose groups of the traditional Chinese medicine composition produced by Comparative Example 1 (0.35, 1.05, 2.10 ml/kg), high, medium and low dose groups of the medicament produced by Example 1 (0.35, 1.05, 2.10 ml/kg). The blank control group was administered equal volume of deionized water. The administration volume was always 2.10 ml/kg. Gavage was performed for consecutive 30 days, once/day. 30 min before modeling, the positive control group was administered. […] A certain amount of phenol red was weighted with a balance, and 5% sodium bicarbonate solution was added to formulate 1 ml solution containing […] of phenol red, which was diluted sequentially to 1 mL solution containing 0.1, 0.3, 0.7, 1.0, 3.0, 5.0, 10.0 μg of phenol red was measured for absorbance. A standard curve was made by taking the dose of phenol red as abscissa, absorbance as ordinate. The amount of phenol red was calculated from the standard curve of phenol red according to the measured OD value. […]

With `C[C@@H]1C[C@H]2[C@@H]3CCC4=CC(=O)C=C[C@]4(C)[C@@]3(F)[C@@H](O)C[C@]2(C)[C@@]1(O)C(=O)CO` [dexamethasone, Dexamethasone] as the compound, how does the “wet weight of granuloma” value (mouse tampon granuloma) read?
The value was 217.11.

What about the “Net weight of granuloma” value (mouse tampon granuloma; dried weight minus original weight of tampon) of the same compound?
Its value is 13.03 mg.

And the “exudated amount of evans blue (EB)” value [1]?
The value was 36.98 ± 2.74 µg/g.

And the “Swelling degrees of toes at different times after inflammation, 1 h” value ([2]; 1 h)?
Its value is 177.23.

What about the “Swelling degrees of toes at different times after inflammation, 2 h” value ([2]; 2 h) of the same compound?
Its value is 164.17.

And the “Swelling degrees of toes at different times after inflammation, 4 h” value ([2]; 4 h)?
The value was 157.17.

How did the “excreted amount of phenol red, result in words” value ([3]; compared with control group) turn out when `Cl.N` [ammonium chloride] was run?
Its value is “significantly (P<0.05) increase the excreted amount of phenol red”.

And the “excreted amount of phenol red” value ([3]; mice, 1 g/kg, 30 min before modeling)?
The value was 7.92 ± 0.88 µg/mL.
